The target in one assay is human CB2 receptors (Homo sapiens (Human), UniProt P34972). Description: cAMP assay, CHO cells expressing human CB2 receptors. The following applies: CHO cells expressing human CB2, cAMP; read-out: human CB2 EC50. Type of assay: cell-based. The essentials: (§1)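 In this cellular cAMP test, IBMX (1 mM) blocked phosphodiesterase during a 30-min, 30 °C compound exposure. Accumulated cAMP was measured by a lysis-based TR-FRET kit and interpolated from a standard curve to give EC50.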
human CB2 receptors, sequence (P34972 whole entry): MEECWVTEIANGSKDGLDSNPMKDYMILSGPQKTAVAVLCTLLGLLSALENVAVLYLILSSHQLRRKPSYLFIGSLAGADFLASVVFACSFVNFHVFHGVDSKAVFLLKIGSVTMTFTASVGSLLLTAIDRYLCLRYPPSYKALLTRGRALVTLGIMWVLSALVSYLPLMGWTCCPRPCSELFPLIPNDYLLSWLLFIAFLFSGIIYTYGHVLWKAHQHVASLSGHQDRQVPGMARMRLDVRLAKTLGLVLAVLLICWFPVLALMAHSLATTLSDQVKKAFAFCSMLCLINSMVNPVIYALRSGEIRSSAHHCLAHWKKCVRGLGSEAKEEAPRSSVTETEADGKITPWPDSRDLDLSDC
A general note: Cyclic AMP is a second messenger, typically raised through Gs and lowered through Gi signalling.

Another assay addresses human CB1 receptors (Homo sapiens (Human), UniProt P21554). Briefly: cAMP assay, CHO cells expressing human CB1 receptors. The following applies: CHO cells expressing human CB1, cAMP; read-out: human CB1 EC50. The format is cell-based. The gist of the method: as §1

pEC50: −log10 of the molar value.

Drawing on patent publication US9290451B2 (Hoffmann-La Roche Inc., priority 2011, dated 2016), this text covers EC50 for 21 compounds.

What is called pEC50 is −log10 of the EC50, conventionally taken in molar units.

human CB1 receptors, sequence (P21554 whole entry): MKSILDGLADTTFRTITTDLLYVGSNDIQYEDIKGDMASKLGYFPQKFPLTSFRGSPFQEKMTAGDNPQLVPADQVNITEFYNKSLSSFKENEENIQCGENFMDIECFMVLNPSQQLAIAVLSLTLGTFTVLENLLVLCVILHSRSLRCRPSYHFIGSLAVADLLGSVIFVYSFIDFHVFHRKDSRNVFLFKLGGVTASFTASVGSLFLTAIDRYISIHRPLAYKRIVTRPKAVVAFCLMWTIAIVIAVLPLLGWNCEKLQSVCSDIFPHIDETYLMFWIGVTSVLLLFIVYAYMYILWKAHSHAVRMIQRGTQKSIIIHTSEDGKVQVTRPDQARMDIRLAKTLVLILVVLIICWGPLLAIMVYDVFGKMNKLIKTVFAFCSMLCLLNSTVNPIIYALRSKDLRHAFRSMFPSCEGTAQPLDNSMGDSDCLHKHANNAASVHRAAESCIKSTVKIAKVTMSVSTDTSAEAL

On to `COCCOc1nc(C(=O)N[C@@H](CC(C)C)C(N)=O)ccc1C1CC1` [Example 142, 5-Cyclopropyl-6-(2-methoxy-ethoxy)-pyridine-2-carboxylic acid ((S)-1-carbamoyl-3-methyl-butyl)-amide], for which the pEC50 is 7.84 on human CB2 receptors and less than 5.00 on human CB1 receptors.

As for `CC1(C)CCc2ccc(C(=O)NC[C@](C)(O)C3CC3)nc2C1` [Example 143, 7,7-Dimethyl-5,6,7,8-tetrahydro-quinoline-2-carboxylic acid ((R)-2-cyclopropyl-2-hydroxy-propyl)-amide], the pEC50 at human CB2 receptors is 6.39; on human CB1 receptors, less than 5.00.

In the case of `Cc1nc(C(C)(C)NC(=O)c2ccc3c(n2)CC(C)(C)CC3)no1` [Example 144, 7,7-dimethyl-N-(2-(5-methyl-1,2,4-oxadiazol-3-yl)propan-2-yl)-5,6,7,8-tetrahydroquinoline-2-carboxamide], the negative-log EC50 (pEC50) on human CB2 receptors was 7.64; at human CB1 receptors it was 6.13.

As for `CC1(C)CCc2ccc(C(=O)NC(C)(C)CO)nc2C1` [Example 145, N-(1-hydroxy-2-methylpropan-2-yl)-7,7-dimethyl-5,6,7,8-tetrahydroquinoline-2-carboxamide], the values for the pEC50 at human CB2 receptors and at human CB1 receptors were 6.54 and less than 5.00, respectively.

Turning to `O=C(N[C@@H](CC1CC1)c1nccs1)c1ccc(N2CC(F)(F)C2)c(OCC2CC2)n1` [Example 146, 6-Cyclopropylmethoxy-5-(3,3-difluoro-azetidin-1-yl)-pyridine-2-carboxylic acid ((S)-2-cyclopropyl-1-thiazol-2-yl-ethyl)-amide], the pEC50 is 7.44 at human CB2 receptors and less than 5.00 at human CB1 receptors.

`O=C(NCc1ccccn1)c1ccc(N2CC(F)(F)C2)c(OCC2CC2)n1` [Example 147, 6-Cyclopropylmethoxy-5-(3,3-difluoro-azetidin-1-yl)-pyridine-2-carboxylic acid (pyridin-2-ylmethyl)-amide]: the results for the pEC50 at human CB2 receptors and on human CB1 receptors were 6.04 and less than 5.00, respectively.

Turning to `O=C(c1ccc(N2CC(F)(F)C2)c(OCC2CC2)n1)N1CCC[C@H]1CO` [Example 149, [6-Cyclopropylmethoxy-5-(3,3-difluoro-azetidin-1-yl)-pyridin-2-yl]-((S)-2-hydroxymethyl-pyrrolidin-1-yl)-methanone], the results for the negative-log EC50 (pEC50) at human CB2 receptors and on human CB1 receptors were 6.76 and less than 5.00, respectively.

Take `CC(C)C[C@H](NC(=O)c1ccc(C2(O)COC2)c(OCC2CC2)n1)C(N)=O` [Example 150, 6-Cyclopropylmethoxy-5-(3-hydroxy-oxetan-3-yl)-pyridine-2-carboxylic acid ((S)-1-carbamoyl-3-methyl-butyl)-amide]: the pEC50 at human CB2 receptors is 6.80; at human CB1 receptors, less than 5.00.

With `Cc1nc(C(C)(C)NC(=O)c2ccc(C3CCOC3)c(-c3cccc(Cl)c3)n2)no1` (stereo not drawn) [Example 151, 6-(3-Chloro-phenyl)-5-(tetrahydro-furan-3-yl)-pyridine-2-carboxylic acid [1-methyl-1-(5-methyl-[1,2,4]oxadiazol-3-yl)-ethyl]-amide], the pEC50 at human CB2 receptors was 6.45; on human CB1 receptors, less than 5.00.

As to `COCCOCC(C)(C)NC(=O)c1ccc(N2CC(F)(F)C2)c(-c2cccc(Cl)c2)n1` [Example 152, 6-(3-Chloro-phenyl)-5-(3,3-difluoro-azetidin-1-yl)-pyridine-2-carboxylic acid [2-(2-methoxy-ethoxy)-1,1-dimethyl-ethyl]-amide], the results for the pEC50 on human CB2 receptors and at human CB1 receptors were 6.35 and less than 5.00, respectively.

As for `COCCOc1nc(C(=O)NC(C)(C)c2noc(C)n2)ccc1C1CC1` [Example 153, 5-Cyclopropyl-6-(2-methoxy-ethoxy)-pyridine-2-carboxylic acid [1-methyl-1-(5-methyl-[1,2,4]oxadiazol-3-yl)-ethyl]-amide], the results for the pEC50 at human CB2 receptors and at human CB1 receptors were 6.53 and less than 5.00, respectively.

For the compound `CC(C)(CCN1CCOCC1)NC(=O)c1ccc(C2CC2)c(OCC2CC2)n1` [Example 154, 5-Cyclopropyl-6-cyclopropylmethoxy-pyridine-2-carboxylic acid (1,1-dimethyl-3-morpholin-4-yl-propyl)-amide], the negative-log EC50 (pEC50) on human CB2 receptors is 6.82; at human CB1 receptors, less than 5.00.

For `CC(C)C[C@H](NC(=O)c1ccc(C2CC2)c(Cc2ccc(F)cc2)n1)C(N)=O` [Example 155, 5-Cyclopropyl-6-(4-fluoro-benzyl)-pyridine-2-carboxylic acid ((S)-1-carbamoyl-3-methyl-butyl)-amide], the pEC50 at human CB2 receptors is 9.15; on human CB1 receptors, 6.91.

`CC(C)(NC(=O)c1ccc(N2CC(F)(F)C2)c(-c2cccc(Cl)c2)n1)c1nccs1` [Example 156, 6-(3-Chloro-phenyl)-5-(3,3-difluoro-azetidin-1-yl)-pyridine-2-carboxylic acid (1-methyl-1-thiazol-2-yl-ethyl)-amide]: the values for the pEC50 at human CB2 receptors and on human CB1 receptors were 6.48 and less than 5.00, respectively.

Turning to `COCCOC[C@H](CC1CC1)NC(=O)c1ccc(N2CC(F)(F)C2)c(OCC2CC2)n1` [Example 157, 6-Cyclopropylmethoxy-5-(3,3-difluoro-azetidin-1-yl)-pyridine-2-carboxylic acid [(S)-2-cyclopropyl-1-(2-methoxy-ethoxymethyl)-ethyl]-amide], the pEC50 on human CB2 receptors was 7.56; at human CB1 receptors it was less than 5.00.

In the case of `COCCOc1nc(C(=O)N[C@@H](CC(C)C)C(N)=O)ccc1N1CC(F)(F)C1` [Example 158, 5-(3,3-Difluoro-azetidin-1-yl)-6-(2-methoxy-ethoxy)-pyridine-2-carboxylic acid ((S)-1-carbamoyl-3-methyl-butyl)-amide], the values for the pEC50 at human CB2 receptors and on human CB1 receptors were 7.64 and less than 5.00, respectively.

On to `Cc1nc(C(C)(C)NC(=O)c2ccc(C3(O)CCC3)c(OCC3CC3)n2)no1` [Example 160, 6-Cyclopropylmethoxy-5-(1-hydroxy-cyclobutyl)-pyridine-2-carboxylic acid [1-methyl-1-(5-methyl-[1,2,4]oxadiazol-3-yl)-ethyl]-amide], for which the pEC50 at human CB2 receptors is 6.91; on human CB1 receptors, less than 5.00.

With `COCCOc1nc(C(=O)N[C@@H](CC2CC2)C(N)=O)ccc1C1CC1` [Example 161, 5-Cyclopropyl-6-(2-methoxy-ethoxy)-pyridine-2-carboxylic acid ((S)-1-carbamoyl-2-cyclopropyl-ethyl)-amide], the negative logarithm of the EC50 (pEC50) at human CB2 receptors was 6.91; at human CB1 receptors, less than 5.00.

Consider `NC(=O)[C@H](CC1CC1)NC(=O)c1ccc(N(CC(F)(F)F)CC(F)(F)F)c(OCC2CC2)n1` [Example 162, 5-[Bis-(2,2,2-trifluoro-ethyl)-amino]-6-cyclopropylmethoxy-pyridine-2-carboxylic acid ((S)-1-carbamoyl-2-cyclopropyl-ethyl)-amide], for which the results for the pEC50 at human CB2 receptors and on human CB1 receptors were 7.26 and 6.17, respectively.

On to `Cc1nc([C@H](CC2CC2)NC(=O)c2ccc(C3CC3)c(OCC3CC3)n2)no1` [Example 163, 5-Cyclopropyl-6-cyclopropylmethoxy-pyridine-2-carboxylic acid [(S)-2-cyclopropyl-1-(5-methyl-[1,2,4]oxadiazol-3-yl)-ethyl]-amide], for which the pEC50 on human CB2 receptors was 7.84; at human CB1 receptors, less than 5.00.

In the case of `Cc1nc([C@H](CC2CC2)NC(=O)c2ccc(N3CC(F)(F)C3)c(-c3cccc(Cl)c3)n2)no1` [Example 164, 6-(3-Chloro-phenyl)-5-(3,3-difluoro-azetidin-1-yl)-pyridine-2-carboxylic acid [(S)-2-cyclopropyl-1-(5-methyl-[1,2,4]oxadiazol-3-yl)-ethyl]-amide], the pEC50 at human CB2 receptors was 6.60; on human CB1 receptors it was less than 5.00.
